Results as given in PubChem BioAssay (NCI).
“And” between values parts separate entries of the source, which are not always exact repeats. Equal entries are not always repeated.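 In this assay, cells in 96-well plates receive the compound at five concentrations for 48 hours. Endpoints are linearly interpolated between the surrounding concentrations. The concentration for 50% growth inhibition is given as GI50. The concentration for full growth arrest is given as TGI.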

Experiments:
Assay in all cases: growth of human tumour cells (NCI), 48 h
[1] = test system: 786-0 renal
[2] = test system: HOP-92 NSCLC
[3] = test system: RPMI-8226 leukemia
[4] = test system: SF-295 CNS
[5] = test system: UACC-257 melanoma
[6] = test system: SN12C renal
[7] = test system: OVCAR-5 ovarian
[8] = test system: LOX IMVI melanoma
[9] = test system: MDA-MB-231 breast
[10] = test system: HCC-2998 colon
[11] = test system: UO-31 renal
[12] = test system: PC-3 prostate
[13] = test system: COLO 205 colon
[14] = test system: DU-145 prostate
[15] = test system: EKVX NSCLC
[16] = test system: MDA-MB-435
[17] = test system: SK-MEL-28 melanoma
[18] = test system: HCT-116 colon
[19] = test system: NCI/ADR-RES ovarian
[20] = test system: OVCAR-4 ovarian
[21] = test system: ACHN renal
[22] = test system: NCI-H226 lung
[23] = test system: SF-268 CNS
[24] = test system: U251 CNS
[25] = test system: BT-549 breast
[26] = test system: HOP-62 NSCLC
[27] = test system: TK-10 renal
[28] = test system: A498 renal

SMILES: CCN(CC)CCNc1ccc(C)c2sc3ccccc3c(=O)c12 (tested in a mixture with another compound)
- GI50 [1]: 1790 nM
- TGI [1]: 4.83 µM and 11.4 µM
- GI50 [2]: 1340 nM and 1760 nM
- TGI [2]: 6.77 µM and 8.86 µM
- TGI [3]: 4.49 µM and 4.35 µM
- TGI [4]: 5.3 µM and 5.37 µM
- GI50 [5]: 2310 nM
- TGI [5]: 4.8 µM
- GI50 [6]: 4.38 µM
- TGI [6]: 12.7 µM and 18 µM
- GI50 [7]: 1800 nM and 2350 nM
- TGI [7]: 3.98 µM and 5.87 µM
- GI50 [8]: 1860 nM and 1700 nM
- TGI [8]: 3.88 µM and 3.81 µM
- GI50 [9]: 1720 nM and 1830 nM
- TGI [9]: 3.56 µM and 3.98 µM
- GI50 [10]: 1550 nM and 1940 nM
- TGI [10]: 3.03 µM and 4.51 µM
- TGI [11]: 3.79 µM
- GI50 [12]: 2770 nM
- TGI [12]: 6.63 µM and 12.4 µM
- TGI [13]: 3 µM and 3.1 µM
- GI50 [14]: 2580 nM and 3080 nM
- TGI [14]: 9.14 µM and 8.92 µM
- GI50 [15]: 5.1 µM and 4.96 µM
- TGI [15]: 19.7 µM and 19.5 µM
- TGI [16]: 4.13 µM and 4.21 µM
- TGI [17]: 3.3 µM and 3.27 µM
- GI50 [18]: 1500 nM
- TGI [18]: 2.9 µM and 3.62 µM
- GI50 [19]: 3.21 µM and 3.19 µM
- TGI [19]: 12.2 µM and 13.5 µM
- GI50 [20]: 3.91 µM
- TGI [20]: 13.6 µM and 17.3 µM
- GI50 [21]: 2340 nM and 2200 nM
- TGI [21]: 5.47 µM and 5.97 µM
- GI50 [22]: 1620 nM and 2270 nM
- TGI [22]: 3.25 µM and 5.09 µM
- GI50 [23]: 3.91 µM and 3.3 µM
- TGI [23]: 14.8 µM and 12.5 µM
- TGI [24]: 6.92 µM and 8.17 µM
- GI50 [25]: 6.4 µM
- TGI [25]: 16.3 µM and 21.4 µM
- GI50 [26]: 1540 nM and 2070 nM
- TGI [26]: 3.12 µM and 5.88 µM
- GI50 [27]: 2730 nM
- TGI [27]: 5.64 µM and 12.2 µM
- GI50 [28]: 1830 nM
- TGI [28]: 4.11 µM and 7.09 µM
